Source: patent publication US10183914B2 (BAYER CROPSCIENCE AKTIENGESELLSCHAFT, priority 2014, dated 2019)

Experiments:
[1] = logp (HCOOH), physicochemical characterization
[2] = tested on: Veronica persica; assay: Pre-emergence herbicidal effect; assay type: in vivo; conditions: 3 weeks
How it was run: (§1)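 Visual scoring at 3 weeks, relative to untreated plants, gives percent efficacy, 0% meaning like control and 100% dead plants. Weed and crop seeds in sandy loam pots received soil-surface application of WP or EC formulations in 600 to 800 L/ha water plus 0.2% wetting agent.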

[3] = tested on: Viola tricolor; assay: Pre-emergence herbicidal effect; assay type: in vivo; conditions: 3 weeks
How it was run: as §1

[4] = tested on: Abutilon theophrasti; assay: Pre-emergence herbicidal effect; assay type: in vivo; conditions: 320 g/ha, 3 weeks
How it was run: as §1

[5] = tested on: Stellaria media; assay: Pre-emergence herbicidal effect; assay type: in vivo; conditions: 320 g/ha, 3 weeks
How it was run: as §1

[6] = tested on: Lolium multiflorum; assay: Pre-emergence herbicidal effect; assay type: in vivo; conditions: 320 g/ha, 3 weeks
How it was run: as §1

[7] = tested on: Matricaria inodora; assay: Pre-emergence herbicidal effect; assay type: in vivo; conditions: 320 g/ha, 3 weeks
How it was run: as §1

[8] = tested on: Echinochloa crus-galli; assay: Pre-emergence herbicidal effect; assay type: in vivo; conditions: 320 g/ha, 3 weeks
How it was run: as §1

[9] = tested on: Amaranthus retroflexus; assay: Pre-emergence herbicidal effect; assay type: in vivo; conditions: 320 g/ha, 3 weeks
How it was run: as §1

[10] = tested on: Polygonum convolvulus; assay: Pre-emergence herbicidal effect; assay type: in vivo; conditions: 320 g/ha, 3 weeks
How it was run: as §1

[11] = tested on: Setaria viridis; assay: Pre-emergence herbicidal effect; assay type: in vivo; conditions: 320 g/ha, 3 weeks
How it was run: as §1

[12] = tested on: Oryza sativa; assay: Post-emergence herbicidal effect and crop plant compatibility; assay type: in vivo; conditions: visual scoring after about 3 weeks
How it was run: (§2)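 Scoring: visual, percent, about 3 weeks post-treatment, untreated plants as 0% reference and dead plants as 100%. Treatment: spray of WP/EC formulation (600 to 800 L/ha water, 0.2% wetting agent) on one-leaf-stage plants grown in sandy loam under greenhouse conditions.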

[13] = tested on: Brassica napus; assay: as above; assay type: in vivo; conditions: 80 g/ha, visual scoring after about 3 weeks
How it was run: as §2

[14] = tested on: Zea mays; assay: as above; assay type: in vivo; conditions: visual scoring after about 3 weeks
How it was run: as §2

[15] = tested on: Triticum aestivum (spring); assay: as above; assay type: in vivo; conditions: visual scoring after about 3 weeks
How it was run: as §2

[16] = tested on: Oryza sativa; assay: Pre-emergence herbicidal effect and crop plant compatibility; assay type: in vivo; conditions: 3 weeks
How it was run: as §1

[17] = tested on: Zea mays; assay: as above; assay type: in vivo; conditions: 3 weeks
How it was run: as §1

[18] = tested on: Triticum aestivum (spring); assay: as above; assay type: in vivo; conditions: 3 weeks
How it was run: as §1

In the case of Cc1ccc2c(c1)[C@H](Nc1ncc3c(n1)CC(c1ccc(F)cc1)CC3=O)[C@@H](C)C2 (some centres unmarked) [2.52], the “logp (HCOOH)” value [1] is reported as “oily; logp (HCOOH): 4.87; 1H-NMR (CDCl3, 400 MHZ, δ in ppm): 1.25 (t, 3H, CH3);”, the “VERPE herbicidal activity in percent” value ([2]; 80 g/ha) is reported as 90% and the “VERPE herbicidal activity in percent” value ([2]; 320 g/ha) is reported as 100%. For the same compound, the “VIOTR herbicidal activity in percent” value ([3]; 80 g/ha) was 100%, the “VIOTR herbicidal activity in percent” value ([3]; 320 g/ha) was 100% and the “ABUTH herbicidal activity in percent” value [4] was 0%. For the same compound, the “STEME herbicidal activity in percent” value [5] was 100%, the “LOLMU herbicidal activity in percent” value [6] was 90% and the “MATIN herbicidal activity in percent” value [7] was 100%. The “ECHCG herbicidal activity in percent” value [8] was 100%, the “AMARE herbicidal activity in percent” value [9] was 100% and the “POLCO herbicidal activity in percent” value [10] was 60%. The “SETVI herbicidal activity in percent” value [11] was 70%, the “post-emergence efficacy ORYSA” value ([12]; 80 g/ha) was 0% and the “post-emergence efficacy ORYSA” value ([12]; 320 g/ha) was 0%. For the same compound, the “post-emergence efficacy BRSNW” value [13] was 20%, the “post-emergence efficacy ZEAMX” value ([14]; 80 g/ha) was 0% and the “post-emergence efficacy ZEAMX” value ([14]; 320 g/ha) was 0%. The “post-emergence efficacy TRZAS” value ([15]; 80 g/ha) was 0%, the “post-emergence efficacy TRZAS” value ([15]; 320 g/ha) was 0% and the “ORYSA herbicidal activity in percent” value ([16]; 80 g/ha) was 0%. For the same compound, the “ORYSA herbicidal activity in percent” value ([16]; 320 g/ha) was 20%, the “ZEAMX herbicidal activity in percent” value ([17]; 80 g/ha) was 0% and the “ZEAMX herbicidal activity in percent” value ([17]; 320 g/ha) was 10%. For the same compound, the “TRZAS herbicidal activity in percent” value ([18]; 80 g/ha) was 0% and the “TRZAS herbicidal activity in percent” value ([18]; 320 g/ha) was 30%.
